Measured values published in patent publication EP4818168A1, “FUSED RING COMPOUND, PHARMACEUTICAL COMPOSITION THEREOF AND USE THEREOF” (priority 2023, dated 2025).
Where two headings read alike, the source gives them in different places.

Tests used:
AURKA = biological target: T1, AURKA (Homo sapiens, UniProt O14965); assay type: cell-based
T1 construct: endogenous in cells; host or cells: Jurkat cells
T1 sequence (O14965 1-403): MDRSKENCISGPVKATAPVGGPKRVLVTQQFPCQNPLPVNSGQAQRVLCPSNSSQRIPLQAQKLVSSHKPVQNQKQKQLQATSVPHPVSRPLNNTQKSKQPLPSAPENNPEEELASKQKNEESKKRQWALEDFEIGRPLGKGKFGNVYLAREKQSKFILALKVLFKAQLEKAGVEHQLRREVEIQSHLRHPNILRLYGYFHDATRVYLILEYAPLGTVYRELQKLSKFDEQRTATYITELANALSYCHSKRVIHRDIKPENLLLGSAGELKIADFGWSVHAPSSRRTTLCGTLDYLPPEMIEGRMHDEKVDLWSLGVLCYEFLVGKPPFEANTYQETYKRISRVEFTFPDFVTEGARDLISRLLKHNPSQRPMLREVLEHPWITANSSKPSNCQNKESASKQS
Excerpt: WB is a classical biochemical experimental method used to detect the abundance of a target protein in a sample of cells or biological tissue. It relies on specific antigen-antibody binding to detect protein signals from the sample processed by gel electrophoresis: the protein specifically binds to a primary antibody at an epitope; the primary antibody is then conjugated with a secondary antibody to amplify the signal cascade; the signal is read out by chemiluminescent or fluorescent detection. The intracellular protein content is ultimately characterized by the intensity of the optical signals. […] The DC50 value can be calculated by curve fitting of the protein WB exposure signals.
The experimental procedure is as follows: • 1. Seed Jurkat cells into a 12-well plate at 1×10^6 cells/500 µL/well. • 2. Mix the culture medium with the compound to a concentration that is twice the desired final concentration. […] Transfer the cell suspension to a centrifuge tube. Rinse the 12-well plate with PBS and then transfer the PBS from the plate to the same centrifuge tube. Centrifuge at 3000 rpm for 5 min at room temperature. Aspirate the supernatant using a vacuum pump. […] Lyse on ice for 20 min. • 4. Centrifuge the lysed sample at 13000 rpm for 20 min at 4°C. Mix the supernatant with 5× protein loading buffer. Boil at 100°C for 5 min and then cool. Store the denatured protein sample at -20°C. • 5. […] Run electrophoresis at 80 V for 20 min, and then at 120 V constant voltage for 60 min. • 6. Transfer the protein onto a nitrocellulose membrane in an ice bath at 250 mA constant current for 90 min. • 7. […] Incubate with a primary antibody overnight at 4°C. • 9. […] Incubate with a secondary antibody for 1-2 h at room temperature. • 10. […] Expose and image the membrane using a LICOR Odyssey DLx imager.

H82 cells = experiment: cells; assay type: cell-based; conditions: Homo sapiens
Experimental: CellTiter-Glo (CTG) is a rapid cell viability test method based on ATP detection. […] Adenosine triphosphate (ATP) participates in various enzymatic reactions in organisms and is an indicator of living cell metabolism. Its content directly reflects the number of living cells and cell status. During the experiment, equal volume of CTG reagent is added to the cultured cells to measure the luminescence value. The chemiluminescent signal value is proportional to the amount of ATP, thus reflecting the number of viable cells. Therefore, cell viability can be obtained by detecting the ATP content. Compounds that affect cell viability will inhibit cell viability in a concentration-dependent manner, allowing a curve to be fitted to obtain the IC50 value.
The experimental procedure is as follows: • 11. Place the cell suspension in a 15 mL centrifuge tube, centrifuge at 1000 rpm for 5 min at room temperature, discard the supernatant, and collect the cell pellet. • 12. Resuspend the cell pellet with preheated complete cell culture medium (RPMI1640+10%FBS+1%PS), and use a Countess® automated cell counter to detect cell viability and density. […] Transfer the compound solution to a 96-well plate seeded with cells (final concentration of DMSO 0.1%), and place in a cell incubator at 37°C, 5% CO2 for 6 days. • 15. […] Protect from light during the whole process. Perform optical signal readings using a SpectraMax i3x reader. • 16. Data analysis: Remaining activity (%) = 100% * (1 - ((LumDMSO - Lummedium) - Lumsample) / (LumDMSO - LumPBS/medium)). Use GraphPad Prism 9.0 software to draw an S-shaped dose-survival rate curve and calculate the IC50 value using a nonlinear regression model.

[1] = 100 nM compound, Jurkat cells, 24 h, Table 2
[2] = 1 µM compound, Jurkat cells, 24 h, Table 2
[3] = NCI-H82, H82 cells, 4000 cells/well, CellTiter-Glo, read-out: IC50 in H82 Cells
[4] = NCI-H82, read-out: IC50 in H82 Cells

SMILES | Percentage of AURKA Degradation Induced by 100 nM Compound in Jurkat Cells (AURKA; [1]) | Percentage of AURKA Degradation Induced by 1 µM Compound in Jurkat Cells (AURKA; [2]) | IC50 (H82 cells; [3]) | IC50 (H82 cells; [4]) | Percentage of AURKA Degradation Induced by 100 nM Compound in Jurkat Cells (AURKA) | Percentage of AURKA Degradation Induced by 1 µM Compound in Jurkat Cells (AURKA)
O=C1CCN(c2ccc(N3CC(N4CCN(Cc5ccc(Nc6ncc7c(n6)-c6ccc(Cl)cc6C(c6c(F)cccc6F)=NC7)cc5)CC4)C3)nc2)C(=O)N1 [Compound A101] | +++ (Degradation > 70%) | +++ (Degradation > 70%) | < 1000 nM | – | – | –
O=C1CCN(c2ccc(N3CCN(CCCOc4cccc(Nc5ncc6c(n5)-c5ccc(Cl)cc5C(c5c(F)cccc5F)=NC6)c4)CC3)cc2)C(=O)N1 [Compound A102] | + (Degradation ≤ 30%) | + (Degradation ≤ 30%) | < 1000 nM | – | – | –
O=C1CCN(c2ccc(N3CCN(CCC(=O)Nc4ccc(Nc5ncc6c(n5)-c5ccc(Cl)cc5C(c5c(F)cccc5F)=NC6)cc4)CC3)cc2)C(=O)N1 [Compound A104] | +++ (Degradation > 70%) | +++ (Degradation > 70%) | < 1000 nM | – | – | –
Cn1c(CN2CCN(c3ccc(N4CCC(=O)NC4=O)cc3)CC2)cnc1-c1ccc(Nc2ncc3c(n2)-c2ccc(Cl)cc2C(c2c(F)cccc2F)=NC3)cc1 [Compound A106] | +++ (Degradation > 70%) | +++ (Degradation > 70%) | < 1000 nM | – | – | –
O=C1CCN(c2ccc(NCCN3CCn4c(cnc4-c4ccc(Nc5ncc6c(n5)-c5ccc(Cl)cc5C(c5c(F)cccc5F)=NC6)cc4)C3)cc2)C(=O)N1 [Compound A107] | ++ (30% < Degradation ≤ 70%) | ++ (30% < Degradation ≤ 70%) | < 1000 nM | – | – | –
O=C1CCN(c2ccc(N3CCC4(CC3)CC(NC(=O)c3ccc(Nc5ncc6c(n5)-c5ccc(F)cc5C(c5c(F)cccc5F)=NC6)cc3)C4)nc2)C(=O)N1 [Compound A109] | ++ (30% < Degradation ≤ 70%) | ++ (30% < Degradation ≤ 70%) | < 1000 nM | – | – | –
Cc1cc(N2CCC3(CC2)CC(NC(=O)c2ccc(Nc4ncc5c(n4)-c4ccc(Cl)cc4C(c4c(F)cccc4F)=NC5)cc2)C3)ncc1N1CCC(=O)NC1=O [Compound A110] | ++ (30% < Degradation ≤ 70%) | ++ (30% < Degradation ≤ 70%) | < 1000 nM | – | – | –
Cc1nc(N2CCC3(CC2)CC(NC(=O)c2ccc(Nc4ncc5c(n4)-c4ccc(Cl)cc4C(c4c(F)cccc4F)=NC5)cc2)C3)ccc1N1CCC(=O)NC1=O [Compound A112] | +++ (Degradation > 70%) | +++ (Degradation > 70%) | < 1000 nM | – | – | –
O=C1CCN(c2ccc(N3CCC4(CC3)CC(NC(=O)c3ccc(Nc5ncc6c(n5)-c5ccc(C7CC7)cc5C(c5c(F)cccc5F)=NC6)cc3)C4)nc2)C(=O)N1 [Compound A115] | +++ (Degradation > 70%) | +++ (Degradation > 70%) | < 1000 nM | – | – | –
O=C1CCN(c2ccc(N3CCC4(CC3)CC(NC(=O)c3ccc(Nc5ncc6c(n5)-c5ccccc5C(c5c(F)cccc5F)=NC6)cc3)C4)nc2)C(=O)N1 [Compound A116] | +++ (Degradation > 70%) | +++ (Degradation > 70%) | < 1000 nM | – | – | –
Cc1ccc2c(c1)C(c1c(F)cccc1F)=NCc1cnc(Nc3ccc(C(=O)NC4CC5(CCN(c6ccc(N7CCC(=O)NC7=O)cn6)CC5)C4)cc3)nc1-2 [Compound A118] | ++ (30% < Degradation ≤ 70%) | +++ (Degradation > 70%) | < 1000 nM | – | – | –
O=C1CCN(c2ccc(C3CN(C4CN(C(=O)c5ccc(Nc6ncc7c(n6)-c6ccc(Cl)cc6C(c6c(F)cccc6F)=NC7)cc5)C4)C3)nc2)C(=O)N1 [Compound A120] | + (Degradation ≤ 30%) | + (Degradation ≤ 30%) | – | < 1000 nM | – | –
O=C1CCN(c2ccc(N3CCN(Cc4cnc(-c5ccc(Nc6ncc7c(n6)-c6ccc(Cl)cc6C(c6c(F)cccc6F)=NC7)cc5)[nH]4)CC3)cc2)C(=O)N1 [Compound A121] | +++ (Degradation > 70%) | ++ (30% < Degradation ≤ 70%) | < 1000 nM | – | – | –
COc1ccc2c(c1)C(c1c(F)cccc1F)=NCc1cnc(Nc3ccc(C(=O)NC4CC5(CCN(c6ccc(N7CCC(=O)NC7=O)cn6)CC5)C4)cc3)nc1-2 [Compound A122] | +++ (Degradation > 70%) | +++ (Degradation > 70%) | < 1000 nM | – | – | –
O=C1CCN(c2ccc(N3CCN(CC#Cc4ccc(Nc5ncc6c(n5)-c5ccc(Cl)cc5C(c5c(F)cccc5F)=NC6)cc4)CC3)cc2)C(=O)N1 [Compound A124] | + (Degradation ≤ 30%) | + (Degradation ≤ 30%) | < 1000 nM | – | – | –
O=C1CCN(c2cccc(N3CCN(CCOc4cccc(Nc5ncc6c(n5)-c5ccc(Cl)cc5C(c5c(F)cccc5F)=NC6)c4)CC3)c2)C(=O)N1 [Compound A125] | ++ (30% < Degradation ≤ 70%) | +++ (Degradation > 70%) | < 1000 nM | – | – | –
O=C1CCN(c2cccc(C3CN(CC#Cc4cccc(Nc5ncc6c(n5)-c5ccc(Cl)cc5C(c5c(F)cccc5F)=NC6)c4)C3)c2)C(=O)N1 [Compound A126] | + (Degradation ≤ 30%) | + (Degradation ≤ 30%) | < 1000 nM | – | – | –
O=C1CCN(c2cccc(N3CCC(C#Cc4cccc(Nc5ncc6c(n5)-c5ccc(Cl)cc5C(c5c(F)cccc5F)=NC6)c4)CC3)c2)C(=O)N1 [Compound A127] | – | – | – | < 1000 nM | +++ (key: +: Degradation ≤ 30%; ++: 30% < Degradation ≤ 70%; +++: Degradation > 70%) | +++ (key: +: Degradation ≤ 30%; ++: 30% < Degradation ≤ 70%; +++: Degradation > 70%)
O=C1CCN(c2ccc(N3CCC4(CC3)CC(NC(=O)c3ccc(Nc5ncc6c(n5)-c5ccc(Cl)cc5C(c5ccccn5)=NC6)cc3)C4)nc2)C(=O)N1 [Compound A128] | +++ (Degradation > 70%) | +++ (Degradation > 70%) | < 1000 nM | – | – | –
Cc1c(N2CCN(CCC#Cc3cccc(Nc4ncc5c(n4)-c4ccc(Cl)cc4C(c4c(F)cccc4F)=NC5)c3)CC2)cccc1N1CCC(=O)NC1=O [Compound A129] | +++ (Degradation > 70%) | +++ (Degradation > 70%) | < 1000 nM | – | – | –
